Reference: patent US20200181284A1, “EPIGENETIC INHIBITORS FOR SENSITIZING HEMATOLOGIC OR OTHER MALIGNANCIES TO GLUCOCORTICOID THERAPY” (UNIVERSITY OF SOUTHERN CALIFORNIA, priority 2017, published 2020)

Key:
SUP-B15 [1] = test: Cell death assay (PrestoBlue viability, 3 days); format: cell-based, human; details: SUP-B15, highest concentration (10 μM), 3 days
Procedure: (§1) Cell death assays: We used PrestoBlue to measure cell viability in response to knockdown and treatment. Cells were grown to a density of 250,000 cell/ml, then dispensed into black tissue culture plates and grown overnight. In the morning, cells were treated. For both CAL-101 (Selleckchem, S2226) and dex (Sigma, D4902), viability was measured after 3 days. As PrestoBlue measures NADPH/NADH metabolites, the balance of which can be affected by GC treatment, we performed frequent cell count spot checks manually by trypan blue exclusion to ensure that fluorescence measurements reflected true viability. Both CAL-101 and dex were dissolved in ethanol, and used 1:1000 in cell culture for a final ethanol concentration of 0.1%. Combination treatments were performed in triplicate in 384 well plates with 20 dilutions of dex from 10^M to 0 and 9 dilutions of CAL-101 from 10^M to 0. Viabilities and EC50 were then calculated using four parameter non-least squares fitting using Prism 6. qPCR of Causative genes: Cells were grown to a density of 1 million cells/ml, then aliquoted into 6 well plates in the afternoon, then grown overnight. Cells were then treated with the drugs and times indicated, at which point cells were spun down at 400 g for 5 minutes, the medium aspirated, and the pellet resuspended in 0.7 ml Qiazol/Trizol and frozen. RNA was then isolated using the miRNAeasy protocol. cDNA was then prepared form 1^g of RNA suing SuperScript3, and qPCR performed using BioRad iQ mix. Primers for qPCR were designed using the IDT web site, then tested for each gene. […] Expression levels for each gene were corrected for primer efficiency, normalized to RPL19, then compared to controls (Pfaffl, 2001).
The optimal signal was determined by incubating cells with 1 ^M dex for 0, 4, 8, and 24 hours. […] Cells were incubated with dex alone, CAL-101 alone, and in combination for 24 hours, then harvested and qPCR performed as described above. Each experiment was performed at least three times, and analyzed using GraphPad (Prism 6). Significant differences between drug and control and between either drug alone and combinations was determined by two sided Student's t-test (P-Value<0.05).
Three cell lines (NALM6, SUP-B15, and RCH-ACV), one resistant patient sample (HM3101), and one relapsed Phlike xenograft (ALL121) were incubated with increasing concentrations of dex or CAL-101 for 3 days. Cell viability was measured by PrestoBlue staining. Curves, values, and errors are based on at least 3 replicates. Bar plot of the EC50, calculated by four-parameter least-squares fitting (Both plotted and calculated in GraphPad Prism).

[2] = test system: resistant patient sample HM3101; test: Cell death assay (PrestoBlue viability, 3 days); format: cell-based, human; details: HM3101, highest concentration (10 μM)
Procedure: Cell death assays: We used PrestoBlue to measure cell viability in response to knockdown and treatment. Cells were grown to a density of 250,000 cell/ml, then dispensed into black tissue culture plates and grown overnight. In the morning, cells were treated. For both CAL-101 (Selleckchem, S2226) and dex (Sigma, D4902), viability was measured after 3 days. As PrestoBlue measures NADPH/NADH metabolites, the balance of which can be affected by GC treatment, we performed frequent cell count spot checks manually by trypan blue exclusion to ensure that fluorescence measurements reflected true viability. Both CAL-101 and dex were dissolved in ethanol, and used 1:1000 in cell culture for a final ethanol concentration of 0.1%. […] Viabilities and EC50 were then calculated using four parameter non-least squares fitting using Prism 6. qPCR of Causative genes: Cells were grown to a density of 1 million cells/ml, then aliquoted into 6 well plates in the afternoon, then grown overnight. […]
The results as shown in FIGS. 14A-14B generally highlight the EC50 of BCP-ALL specimens for dexamethasone and CAL-101. […] Cell viability was measured by PrestoBlue staining. […] Bar plot of the EC50, calculated by four-parameter least-squares fitting (Both plotted and calculated in GraphPad Prism). […]

NALM-6 = test: qPCR of effector genes, dex and CAL-101 alone and combined, 24 hours; format: cell-based, human; details: NALM-6, CAL-101 alone
Procedure: as §1
(§2) The optimal signal was determined by incubating cells with 1 ^M dex for 0, 4, 8, and 24 hours. […] Each experiment was performed at least three times, and analyzed using GraphPad (Prism 6). Significant differences between drug and control and between either drug alone and combinations was determined by two sided Student's t-test (P-Value<0.05).

SUP-B15 [3] = test: as above; format: cell-based, human; details: SUP-B15, addition of CAL-101 to dex
Procedure: as §1, §2

RCH-ACV = test: as above; format: cell-based, human; details: addition of CAL-101 to dex
Procedure: as §1, §2

[4] = test system: relapsed B-ALL cells (ALL121); test: PDX model of ALL: NSG mice engrafted with ALL121, spleen size and human ALL cells in spleen; format: in vivo; details: idela monotherapy 50 mg/kg daily, two weeks
From the text: As proof of concept, we tested this combination in a PDX model of ALL.

[5] = test system: five B-ALL samples (NALM-6, SUP-B15, RCH-ACV, HM3101, ALL121); test: Combination of dex and CAL-101: isoboles and combination index (Calcusyn); format: cell-based, human; details: lowest value over the samples; super additive <1, Calcusyn
Procedure: Cell death assays: We used PrestoBlue to measure cell viability in response to knockdown and treatment. Cells were grown to a density of 250,000 cell/ml, then dispensed into black tissue culture plates and grown overnight. In the morning, cells were treated. For both CAL-101 (Selleckchem, S2226) and dex (Sigma, D4902), viability was measured after 3 days. As PrestoBlue measures NADPH/NADH metabolites, the balance of which can be affected by GC treatment, we performed frequent cell count spot checks manually by trypan blue exclusion to ensure that fluorescence measurements reflected true viability. Both CAL-101 and dex were dissolved in ethanol, and used 1:1000 in cell culture for a final ethanol concentration of 0.1%. Combination treatments were performed in triplicate in 384 well plates with 20 dilutions of dex from 10^M to 0 and 9 dilutions of CAL-101 from 10^M to 0. Viabilities and EC50 were then calculated using four parameter non-least squares fitting using Prism 6. qPCR of Causative genes: Cells were grown to a density of 1 million cells/ml, then aliquoted into 6 well plates in the afternoon, then grown overnight. Cells were then treated with the drugs and times indicated, at which point cells were spun down at 400 g for 5 minutes, the medium aspirated, and the pellet resuspended in 0.7 ml Qiazol/Trizol and frozen. […]

With CC[C@H](Nc1ncnc2[nH]cnc12)c1nc2cccc(F)c2c(=O)n1-c1ccccc1 [CAL-101] the “death caused by CAL-101” value (SUP-B15 [1]) was under 50%, the “death caused by CAL-101” value [2] was under 50% and the TXNIP regulation (NALM-6) was “no effect”. The PIK3CD expression (SUP-B15 [3]) was “no significant effect”, the PIK3CD expression (RCH-ACV) was “no significant effect” and the “effect on spleens (spleen size)” value [4] was “no effect”. For the same compound, the “combination index of dex and CAL-101” value [5] was at least 0.13.
